Data: patent US5314890A, “1-7 disubstituted xanthine derivatives having antiasthmatic activity, their physiologically acceptable salts, pharmaceutical compositions containing them and process for their preparation” (priority 1990, dated 1994)
Where two headings read alike, the source gives them in different places.

What was measured:
[1] = tested on: anaesthetized guinea pigs (sensitized); experiment: Antagonism toward ovoalbumin induced bronchomotor effects in anaesthetized guinea pigs; format: in vivo, guinea pig; settings: 140 μmol/Kg i.v., 15 min before OA aerosol 0.5% for 20 s; for % inhibition of OA-induced bronchospasm referred to control group: N.A. = not active; for changes in pulmonary insufflation pressure after OA aerosol: controls 1.80 ± 0.15 KPa
Method: Antagonism toward ovoalbumin induced bronchomotor effects in anaesthetized guinea pigs.
Anaesthetized guinea pigs (sensitized with 100 mg/Kg s.c. plus 100 mg/Kg i.p. of ovoalbumin (OA) 14 days before tests) were used as described previously although bronchospasm was produced by OA intratracheal aerosol administration (0.5% for 20 s.).
Antibronchospastic activity was expressed as changes in pulmonary insufflation pressure (KPa) after OA aerosol administration and as inhibition percentage referred to control group.

male Swiss mice [2] = experiment: Pentylentetrazol-induced lethality in mice; format: in vivo; settings: 0.55 mmol/kg orally, 1 h before PTZ (60-75 mg/kg i.p.); controls 10%
Method: The drugs were administered orally (0.55 mmol/kg) in a volume of 20 ml/kg 1 h before PTZ. CNS excitation was valued as increase of PTZ mortality.

male Swiss mice [3] = experiment: Chlordiazepoxide-induced sleep in mice; format: in vivo, mouse; settings: 0.55 mmol/kg orally, 1 h before CDO (100 mg/kg i.p.); controls 27.1 ± 3.5 min; * p < 0.01
Method: Starved (20 h) male Swiss mice (20 g body weight) were injected with chlordiazepoxide (CDO) (100 mg/kg i.p.) and the duration of the induced sleep assessed. Sleeping time was defined as the time elapsing from the loss to the recovery of the righting reflex. The drugs were administered orally (0.55 mmol/kg) in a volume of 20 ml/kg 1 h before CDO. CNS excitation was valued as decrease in sleeping time (Table 4).

[4] = Acute oral toxicity in mice; settings: mouse, in vivo, starved male Swiss mice, observed 10 days, Litchfield and Wilcoxon
Method: Starved (18 h) male Swiss mice (20 g weight) received drugs orally (0.2 ml/10 g weight).
Death and symptoms were evaluated LD50 was obtained according to Litchfield and Wilcoxon (J. Pharm. Expt. Ther. 96, 99, 1949).

[5] = tested on: isolated guinea pig bronchi; experiment: "In vitro" antibronchospastic activity in isolated guinea pig bronchi; format: cell-based; settings: Cavia porcellus
Method: A steady tonic bronchomotor response was produced by administration of carbachol (0.3 μM) or capsaicin (0.3 μM, in presence of thiorphan 10 μM) on which a concentration-response curve with the various xanthine derivatives was carried out.

[6] = tested on: anaesthetized guinea pigs; experiment: Antagonism toward acetylcholine- and capsaicin-induced bronchomotor effects in anaesthetized guinea-pig; format: in vivo; settings: 70 μmol/kg i.v., mean ± s.e.m.; for inhibition percentage of acetylcholine (Ach) induced bronchospasm: 15 min before acetylcholine 25 μg/kg; for inhibition percentage of capsaicin (Caps) induced bronchospasm: 15 min before capsaicin 2.5 μg/kg
Method: Anaesthetized guinea-pig were used D-Tubocurarine (3 mg/kg i.v.) was administered, and a mechanic ventilation (60 strokes/min) with a pump through a tracheal cannula was carried out Drugs were administered intravenously in a volume less than 0.5 ml/kg through a jugular cannula. Acetylcholine (25 μg/kg) or capsaicin (2.5 μg/kg) administration evoked a powerful and transient increase in tracheal insufflation pressure which was repeatable after 30 min. […] Antibronchospastic activity was expressed as inhibition percentage referred to the first increase of tracheal insufflation pressure.

sensitized guinea-pigs = experiment: Antagonism toward antigen-induced bronchospasm in sensitized guinea-pigs; format: in vivo, guinea pig; settings: 0.55 mmol/kg orally, 1 hour before 0.5% ovalbumin aerosol; mean ± s.e.m.; control 8.4 ± 0.8; * p < 0.05
Method: Guinea-pigs (sensitized with 100 mg/kg s.c. plus 100 mg/kg i.p. of ovalbumin 14 days before) (Herxheimer and Streseman-Arch. Int. Pharmacodyn. Ther. 125, 265; 1960) were challenged by an aerosol of 0.5% ovalbumin, for a period of 10 sec. in a closed chamber.
In a first set of experiments, number of aerosol-induced bronchospasms was registered in control conditions or 1 hr after the oral administration of testing substances.

[7] = Goodman and Gilman, 1985; cited from earlier work
[8] = Antibronchospastic / bronchodilatory activity, general statement (laboratory tests by the Applicant)
[9] = isolated guinea pig bronchi, capsaicin 0.3 μM with thiorphan 10 μM, 95% C.L. in brackets, read-out: IC50, capsaicin-induced tone
[10] = isolated guinea pig bronchi, carbachol 0.3 μM, 95% C.L. in brackets, read-out: IC50, carbachol-induced tone

Structure (SMILES)	% inhibition of OA-induced bronchospasm referred to control group [1]	changes in pulmonary insufflation pressure after OA aerosol [1]	PTZ test mortality rate (male Swiss mice [2])	CDO test sleeping-time (male Swiss mice [3])	LD50 at 240 h [4]	IC50 [5, 9]	IC50 [5, 10]	inhibition percentage of acetylcholine (Ach) induced bronchospasm [6]	inhibition percentage of capsaicin (Caps) induced bronchospasm [6]	number of bronchospasms recorded in 5 minutes (bronchospasm/min) (sensitized guinea-pigs)	side effects (in words) [7]	IC50 ([5]; read-out: IC50, capsaicin-induced tone)	IC50 ([5]; read-out: IC50, carbachol-induced tone)	antibronchospastic / bronchodilatory activity (in words) [8]
Cn1c(=O)[nH]c2ncn(CC(C)(C)O)c2c1=O [1-methyl-7-(2-methyl-2-hydroxy-propyl)-xanthine]	36%	1.15 ± 0.15 KPa	0%	64.2 ± 12.8 min										
CC(C)Cn1cnc2[nH]c(=O)n(C)c(=O)c21 [1-methyl-7-isobutyl-xanthine]	86%	0.25 ± 0.08 KPa	20%	26.1 ± 3.3 min	303 mg/kg	21 µM	31 µM	54 ± 5%	52 ± 3%	5.0 ± 1.1 bronchospasm/min				
Cn1c(=O)c2[nH]cnc2n(C)c1=O [Theophylline, 1,3-dimethyl-xanthine, reference compound]				7.8 ± 2.2 min		40 µM	92 µM	51 ± 8%	51 ± 7%	4.6 ± 1.2 bronchospasm/min	side effects on the cardiovascular system and on the central nervous system			
Cn1c(=O)[nH]c2ncn(C)c2c1=O [Paraxanthine, 1,7-dimethyl-xanthine]			82%	2.3 ± 1.5 min								82 µM	135 µM	does not show any significant antibronchospastic activity
